The nature of one data set: in vitro. The following applies: dog.
Data set [1] relates to Influenza A virus H1N1 (H1N1A/Weiss/43). In words: microbe, parasite or virus in culture. The following applies: for EC50: 72 h. The format is cell-based.
In data set [2] the test system is NA from influenza A virus H1N1. The data set is classed as biochemical.
The test system of another data set is influenza A virus H1N1. On the set-up: species or system SPF KM mice. The following applies: mouse, in vivo.

“Also recorded” adds a separate entry of the source.

Turning to `COC1=C(c2ccc(C)cc2)C(=O)OC1(C)OC` (stereo not drawn) [Compound 26, 3,4-dimethoxy-4-methyl-2-(p-tolyl) butenolide], the CC50 in “in vitro” stood at 184 ± 5.1 µM.
Regarding `COC1=C(c2ccc(Cl)cc2)C(=O)OC1(C)C(O)c1ccc(C)cc1` (stereo not drawn) [Compound 46], the CC50 in the data set “in vitro” came to 75.2 ± 3.6 µM.
One may read the EC50 as the concentration that produces a half-maximal response. A high value points to weaker potency. One may read the IC50 as the concentration at which inhibition is half-maximal. The molecule `COC1=C(c2ccc(Br)cc2)C(=O)OC1(C)OC` (stereo not drawn) [Compound 25, 2-(4-bromophenyl)-3,4-dimethoxy-4-methylbutenolide] came in with a CC50 in “in vitro” of 266 ± 18.4 µM. Besides, in data set [1] (Influenza A virus, H1N1, MDCK), the concentration for a half-maximal effect (EC50) turned out to be 61.1 ± 5 µM. In addition, in data set [1] (Influenza A virus, H1N1, MDCK, read-out: IC50 for inhibiting influenza A virus H1N1), the IC50 came out at 61 µM.
`COC1=C(c2ccc(Cl)cc2)C(=O)OC1(C)C(O)c1ccc(N2CCOCC2)cc1` (stereo not drawn) [Compound 48]: the CC50 in “in vitro” is 130 ± 8.1 µM.
In the case of `COC1(C)OC(=O)C(c2ccc(Cl)cc2)=C1N1CCOCC1` (stereo not drawn) [Compound 58], the CC50 in the data set “in vitro” is 209 ± 14.1 µM. The molecule further gave an EC50 in data set [1] (Influenza A virus, H1N1, MDCK) of 34.7 ± 5.9 µM.
Consider `COC1=C(c2ccc(F)c(F)c2)C(=O)OC1(C)OC` (stereo not drawn) [Compound 30, 2-(3,4-difluorophenyl)-3,4-dimethoxy-4-methylbutenolide], for which the CC50 in the data set “in vitro” was determined as 109 ± 7.6 µM. For the same molecule, the EC50 in data set [1] (Influenza A virus, H1N1, MDCK) was 33.4 ± 1 µM.
For `CCOC(=O)C1=C[C@@H](OC(CC)CC)[C@H](NC(C)=O)[C@@H](N)C1` [Os, Oseltamivir, reference compound], in that order: more than 800 µM and 0.28 ± 0.05 µM.
Molecule `COC1(C)OC(=O)C(c2cccc(F)c2)=C1N1CCOCC1` (stereo not drawn) [Compound 60] registered a CC50 in the data set “in vitro” of 147 ± 8.1 µM.
`COC1(C)OC(=O)C(c2ccc(F)cc2)=C1N1CCOCC1` (stereo not drawn) [Compound 57]: in “in vitro”, the CC50 is 776 ± 63.2 µM. This molecule displayed an EC50 in data set [1] (Influenza A virus, H1N1, MDCK) of 14.3 ± 1.7 µM.
Take `NC(=O)c1ncn([C@@H]2O[C@H](CO)[C@@H](O)[C@H]2O)n1` [Ri, Ribavirin, reference compound]: the CC50 in “in vitro” stood at 532 ± 20.3 µM. This molecule also came in with an EC50 in data set [1] (Influenza A virus, H1N1, MDCK) of 105 ± 51 µM.
As to `COc1ccc(C2=C(N3CCOCC3)C(C)(OC)OC2=O)cc1` (stereo not drawn) [Compound 37, 2-(4-methoxyphenyl)-4-methoxy-4-methyl-3-morpholinobutenolide], in data set [2], the “inhibition rate of NA activity (in words)” value was “increased in a dose-dependent manner”. The molecule further yielded a CC50 in “in vitro” of 536 ± 15.1 µM. In addition, in the data set with influenza A virus H1N1, the “body temperature after virus infection” value is given as “closed to the control groups”; the “body weight after virus infection” value was “kept increasing”; the “gross lesions in lungs” value is reported as “less lesion”; the “lung histopathology (H&E staining)” value is “less lung inflammation and lesions”. Further, the “viral load / expression of virus gene in lung tissue by qRT-PCR” value in the data set with influenza A virus H1N1 is listed as “inhibit the expression of the influenza A virus gene in the lung; also recorded: Lower viral loads; also recorded: lower than that of the model group”. Besides, the “antivirus activity against influenza A H1N1 (in words)” value in data set [1] is recorded as “dose-dependent; also recorded: better antivirus activity than positive control ribavirin”. The response in data set [1] (Influenza A virus, H1N1, MDCK) was half-maximal at 6.7 ± 1.3 µM (EC50).
With `COC1=C(c2ccccc2F)C(=O)OC1(C)OC` (stereo not drawn) [Compound 29, 2-(2-fluorophenyl)-3,4-dimethoxy-4-methylbutenolide], in the data set “in vitro”, the CC50 was determined as 204 ± 3.2 µM.
The molecule `COC1=C(c2ccc(Cl)cc2)C(=O)OC1(C)OC` (stereo not drawn) [Compound 24, 2-(4-chlorophenyl)-3,4-dimethoxy-4-methylbutenolide] showed a CC50 in the data set “in vitro” of 98.3 ± 3.5 µM.
For `COC1=C(c2cccc(F)c2)C(=O)OC1(C)OC` (stereo not drawn) [Compound 28, 2-(3-fluorophenyl)-3,4-dimethoxy-4-methylbutenolide], in “in vitro”, the CC50 was 19.8 ± 1 µM. The EC50 in data set [1] (Influenza A virus, H1N1, MDCK) was 9.4 ± 0.8 µM.
As to `COC1=C(c2ccc(Cl)cc2)C(=O)OC1(C)C(O)c1ccccn1` (stereo not drawn) [Compound 47], the CC50 in the data set “in vitro” was determined as 155 ± 6.8 µM.
In turn, `COC1=C(c2ccccc2)C(=O)OC1(C)OC` (stereo not drawn) [Compound 22, 3,4-dimethoxy-4-methyl-2-phenylbutenolide] registered a CC50 in the data set “in vitro” of 168 ± 9.7 µM. The half-maximal effective concentration (EC50) in data set [1] (Influenza A virus, H1N1, MDCK) turned out to be 26.3 ± 4.4 µM.

These data come from publication PMC6705239 (ACS Omega, 2019).
